Laboratory results as given in patent US7271239B2, “D-isomers of antimicrobial peptide” (The Research Foundation of State University of New York, priority 2004, dated 2007).
Where no end group is shown, it is not given here.

Experiments:
C. albicans strain DIS = assay type: in vivo, mice ICR strain; conditions: mouse, in vivo
Method: A previously described protocol was adopted (14). Mice were immunosuppressed with two subcutaneous injections of prednisolone at a dose of 100 mg/kg body weight 1 day prior to and 3 days after the infection with C. albicans. Tetracycline hydrochloride in drinking water at a concentration of 0.83 mg/ml was given to mice beginning 1 day before infection. Mice were anesthetized by intramuscular injection with 60 μl of 2 mg/ml chlorpromazine chloride, using a dose of 10 mg/kg body weight of mice. While under anesthesia, a small cotton ball soaked in 0.1 ml aliquot of C. albicans cell suspension (2.5×10^6 cells) was used to swab the entire oral cavity of the anesthetized mice.
Visual evaluation was done by carefully extending the tongue of randomly picked mice using blunt-end forceps, while the mice were under isoflurane sedation. Presence of thick, white curd-like patches indicated candidal infection. At day 3 post-infection, all animals were examined for evidence oral candidal infection by microbiological evaluation. The entire oral cavity of anesthetized mice was swabbed using a sterile calcium alginate disposable swab (Fisher Scientific), dampened with sterile PBS. Cells were then released from the swab into 1 ml PBS. Serial 10-fold dilutions were plated on SDA plates supplemented with streptomycin (30 μg/ml). Plates were incubated for 24 h at 37° C. and yeast cell count expressed as log10 of cfu/ml.
Tongues from sacrificed animals were used for histological studies. They were fixed in 10% formalin and embedded in paraffin. Serial five-μm sections were cut from the paraffin block and stained with periodic acid-Schiff (PAS) reagent for detection of C. albicans.
Mice were randomly divided into various treatment groups with 8 mice per group. Antifungal agents were employed on an equimolar basis, and included amphotericin B (1.75%), clotrimazole (0.66%), MUC7 12-mer (RKSYKCLHKRCR—SEQ ID NO:1) (L; 3%), MUC7 12-mer (D; 3%), MUC7 12-mer (D; 3%) containing Na2EDTA (1 mM), MUC7 12-mer (L; 3%) containing protease inhibitor cocktail (PIC) (1%), and Hsn5 12-mer (AKRHHGYKRKFH—SEQ ID NO:2) (3%). They were all emulsified in Pluronic F127, (20% lipoil), a polymer of polyoxyethylene and polyoxypropylene (non-ionic surfactant). Animals were anesthetized using isoflurane; while sedated, about 30 to 40 μl of the antifungal emulsion was applied on the tongue and spread throughout oral cavity. The treated mice were under sedation for additional 5 min under isoflurane. Animals were not given access to food and water for 1 h following the application.
Fungal burden was re-evaluated quantitatively after 3 and 6 days of treatment, using the same technique as the one used for initial evaluation. Randomly picked mice from each group was subjected to histopathological evaluation, after 6 days of treatment. Blood from randomly sacrificed mice from each treatment group was analyzed for any changes in the serum liver (AST, ALT, ALP etc.) and kidney enzymes (BUN, glucose, creatinine etc) levels.
Statistical analysis was performed using a significance level set at 0.05 (α) and a significant group size (n=8). Initial infection and antifungal treatment efficacy were determined using analysis of variance (ANOVA), expressed as log10 cfu, and Scheffe's multiple comparison test was used to determine the differences between various treatment groups.

C. glabrata ATCC90030 = assay: Killing assay in clarified saliva; assay type: cell-based
From the text: (§1) Killing assays in saliva. […] Saliva without peptides was a blank control.
(§2) Activity of peptides in saliva against different candida strains. The in vitro candidacidal activities of MUC7 12-mer-L and D, Hsn5 12-mer, and Magainin-II against four Candida strains in clarified saliva are shown in Table 1. The data are presented as percent loss of cell viability compared to non-treated control. The following observations were made. […] In the presence of PIC, the activity values of MUC7 12-mer-L and of Magainin-II rose close to a 100% for all strains, but not that of Hsn5 peptide, which achieved the similar activity only against the C. albicans (ATCC strain). The activities against the other strains were much lower, in particular against both strains of C. glabrata (30-40%). […] This was true especially in saliva without PIC.

C. krusei = assay: Killing assay in clarified saliva; assay type: cell-based
From the text: as §1, §2

C. albicans ATCC96112 = assay: Killing assay in clarified saliva; assay type: cell-based
From the text: as §1, §2

HOK-16B cells = assay: MTS cell viability assay; assay type: cell-based, human; conditions: 200 μM
Method: FIG. 6. Effect of peptides on viability of (A) HOK-16B cells and (B) KB cells. The toxic effect of the compounds on the cells was determined by calorimetric assay using a CellTiter 96 AQueous One Solution cell proliferation assay (MTS) kit, as described in the text. Briefly, the cells were grown to about 80% confluence, harvested, washed, resuspended in KGM, and dispensed into a 96-well microtiter plate. They were then exposed to different concentrations of peptides or amphotericin B at 37° C. and 5% CO2 for 1.5 h. MTS agent was then added to each well, and the cells were further incubated for 4 h. Absorbance at 490 nm was then measured using a microplate reader. MTS reduction is an indication of cell viability. The viability is expressed as relative absorbance (percentage of no-agent control). Data represent the average and standard deviation of results from two independent experiments.
Cell culture. The HOK-16B cell line (originated from primary normal human keratinocytes) was kindly provided by No-Hee Park, UCLA School of Dentistry. The KB cell line was obtained from the American Type Culture Collection (CLL-17). […]
MTS cell viability assay. The toxic effect of the compounds on the cells was determined by calorimetric assay using a CellTiter 96 AQueous One Solution cell proliferation assay (MTS) kit (Promega, Wis.). […] Absorbance at 490 nm was then measured using a microplate reader. […]

## AKRHHGYKRKFH [Hsn5 12-mer]
C. albicans strain DIS
  additional tissue change in tongue section: acanthosis of the stratum spinosum

## GIGKFLHSAKKFGKAFVGEIMNS [Magainin-II]
C. glabrata ATCC90030; PIC+
  percent loss of cell viability: 99.06^± %
C. glabrata ATCC90030; PIC−
  percent loss of cell viability: 0.00%
C. krusei; PIC+
  percent loss of cell viability: 100%
C. krusei; PIC−
  percent loss of cell viability: 0.00%
C. albicans ATCC96112; PIC+
  percent loss of cell viability: 97.90%
C. albicans ATCC96112; PIC−
  percent loss of cell viability: 7.17%
HOK-16B cells
  loss of HOK-16B cell viability: about 30%
